Measurements as given in ChEMBL document CHEMBL1157539, “Thousands of chemical starting points for antimalarial lead identification” (Nature, 2010).

System: Plasmodium falciparum
Test: GSK_TCMDC: Inhibition of Plasmodium falciparum 3D7 in whole erythrocytes, using parasite LDH activity as an index of growth.
Type: functional, organism-based
Settings: Plasmodium falciparum, 3D7

| SMILES | XC50 [nM] |
| --- | --- |
| Nc1nc(N)c2c(Sc3ccccc3)cccc2n1 | 645 |
| O=C(NCCCCCN1CCC(c2c[nH]c3ccccc23)CC1)Nc1ccc(Cl)c(Cl)c1 | 920 |
| CCN(CC)CCN(Cc1ccc(-c2ccc(C(F)(F)F)cc2)cc1)C(=O)c1ccc(-c2ccc(C#N)cc2)cc1 | 1110 |
| O=C(NCCN1CCCC1)N1CCCN(c2ncnc3cc(-c4ccc(Cl)cc4)sc23)CC1 | 918 |
| Cc1cc(N[C@@H](Cc2ccccc2)C(=O)NCc2cccs2)nc(NCCOc2ccccc2)n1 | 1480 |
| Cc1ccc(C(NC(=O)c2ccccc2)c2ccc3cccnc3c2O)cc1 (stereo not given) | 961 |
| COc1cccc(-c2ccc(C(=O)NCC3CCCN(Cc4cccc(C(F)(F)F)c4)C3)s2)c1 (stereo not given) | 1140 |
| CC(C)Cc1ccc(N2CCN(CCCCNC(=O)c3ccc(NC(=O)c4cc(C(F)(F)F)cc(C(F)(F)F)c4)cc3)CC2)cc1 | 179 |
| CC(C)(C)c1ccc(NC(=O)c2cccc(CN3CCN(Cc4cccc(O)c4)CC3)c2)cc1 | 1400 |
| O=C(/C=C/c1ccc(Cl)c(Cl)c1)NCCCCCN1CCC(NC(=O)c2ccc(F)cc2F)CC1 | 759 |
| O=C(Cc1ccc(NC(=O)c2ccc(O)c(-c3ccc(Cl)c(Cl)c3)c2)cc1)NCCN1CCOCC1 | 806 |
| CCCc1cc(C)ccc1OCCCON1C(NC(=O)OCC)=NC(NC(=O)OCC)=NC1(C)C | 35.9 |
| CCc1nc(N)nc(N)c1-c1ccc(F)c(F)c1 | 417 |
| Cc1cccn2c(=O)c3cc(C(=O)NCCc4ccccc4)c(=N)n(CCCOC(C)C)c3nc12 | 481 |
| Cc1cc(O)c(-c2ccc(Oc3ccc(F)cc3)cc2)c(C)n1 | 972 |
| COC(=O)c1ccc(C(=O)NCCCCN2CCC(c3ccc4c(c3OC)CCCC4)CC2)cc1-c1ccc(C(F)(F)F)cc1 | 1150 |
| O=C(NCCCCN1CCC(c2ccc3ccccc3c2O)CC1)c1ccc(NC(=O)c2ccc(Cl)cc2)cc1 | 1010 |
| CN(C)c1ccc(C2c3[nH]cnc3CCN2C(=O)Nc2cccc([N+](=O)[O-])c2)cc1 (stereo not given) | 966 |
| O=C(NCCc1ccccc1)N(Cc1ccccc1-c1ccc(CNCCc2ccccc2)cc1)C1CCN(Cc2ccccc2)CC1 | 716 |
| CC1(C)NC(N)=NC(=N)N1OCCCOc1cccc(Cl)c1 | 3.2 |
| CC(C)(C)c1ccc(OCCCON2C(N)=NC(N)=NC2(C)C)cc1 | 3.2 |
| COc1cccc(Nc2c(C(N)=O)cnc3ccc(-c4ccc([S+](C)[O-])cc4)cc23)c1 (stereo not given) | 186 |
| O=S(=O)(c1ccc(Oc2ccccc2)cc1)N(CCC(O)(C(F)(F)F)C(F)(F)F)Cc1cccc(O)c1 | 491 |
| Oc1ccc2ccccc2c1CNC1CCCCCC1 | 933 |

| SMILES | XC50 [nM] |
| --- | --- |
| O=C(NCCCCCCNCc1ccc(-c2ccccc2)cc1)Nc1ccc(Cl)c(Cl)c1 | 962 |
| CN(C)CCOc1cccc(-c2cnc(N)c(-c3nc4cc(S(C)(=O)=O)ccc4[nH]3)c2)c1 | 950 |
| CCOC(=O)Cn1ccc2c(NCc3ccccc3)nc(C)nc21 | 374 |
| N=C(NCC1CC1c1ccccc1)c1cccc(C(=N)NCC2CC2c2ccccc2)n1 (stereo not given) | 1760 |
| CN(C)CCCn1c(N)c(-c2nc3ccccc3[nH]2)c2nc(C#N)c(C#N)nc21 | 591 |
| O=C(Nc1ccc2nc3n(c(=O)c2c1)CCCCC3)C(=O)N1CCC(Cc2ccccc2)CC1 | 757 |
| CN1CCN(CCCNCc2cccc(Nc3nccc(Nc4ccc(Oc5ccccc5)cc4)n3)c2)CC1 | 765 |
| O=C(NCCCN1CCC(N2CCCCC2)CC1)c1ccc(N2CCOc3ccccc32)s1 | 732 |
| Nc1c2ccccc2nc2cc([N+](=O)[O-])ccc12 | 870 |
| O=C(CCCCCCc1ccccc1)Nc1ccc2nc3c(c(NCc4ccccc4)c2c1)CCCC3 | 358 |
| COc1ccc2nccc([C@@H](O)CN3CCC(NCc4cc5cccc(O)c5c(=O)[nH]4)CC3)c2c1 | 385 |
| N#Cc1c(N)nc(SCC(=O)Nc2cc(C(F)(F)F)ccc2Cl)c(C#N)c1-c1cccs1 | 743 |
| CC(C)COc1ccc(Cl)cc1Cc1ccc(-c2nc3cc(N4CCN(C)CC4)ccc3[nH]2)o1 | 945 |
| CCCCCSc1cc(O)c(C(CNC)C(C)C)cc1OC (stereo not given) | 163 |
| O=C(Nc1cc(Cl)c(Cl)cc1NC(=O)c1cccc(-c2ccccc2)c1O)c1cccc(-c2ccccc2)c1O | 505 |
| CCOc1c(CNCCCNc2cc(=O)c3ccccc3[nH]2)cc(I)cc1C(C)(C)C | 703 |
| COc1cc(C(F)(F)F)nc2c(CNCCCNc3cc(=O)c4ccccc4[nH]3)scc12 | 1180 |
| CN(c1ccc(NC(=O)Nc2cc(C(F)(F)F)ccc2F)cc1)c1ccnc(NCCN2CCCC2)n1 | 1150 |
| NC1=NC(c2ccccc2)(c2ccccc2)C(=O)N1CCCCc1ccccc1 | 760 |
| COc1ccc(CNCc2cccc(-c3ccc(-c4nc5cccc(C)c5[nH]4)cc3)c2)cc1 | 237 |
| CC(C)c1cc(Oc2c(I)cc(CCNC(=N)N)cc2I)ccc1O | 788 |
| O=C(NC1CCN(Cc2ccc3c(c2)OCCO3)CC1)c1ccc(-c2cccc(C(F)(F)F)c2)s1 | 1830 |
| Cc1cccc2nc(-c3cccc(-c4ccc(CN5CCC(C(N)=O)CC5)cc4)c3)[nH]c12 | 853 |
| CCc1c[nH]c2c(N3CCCC3=O)cc(C(=O)N[C@@H](Cc3ccccc3)[C@H](O)CNC3CCCCC3)cc12 | 102 |

| SMILES | XC50 [nM] |
| --- | --- |
| Cc1cccc2nc(-c3cccc(-c4ccc(NC(=O)C(C)C(=O)NC(C)C)cc4)c3)[nH]c12 (stereo not given) | 1000 |
| O=C(NC(c1ccccc1)c1ccccc1)C(c1cc2ccccc2o1)N1CCN(C(c2ccccc2)c2ccccc2)CC1 (stereo not given) | 679 |
| COc1ccc(C2(CNCC(O)c3cccc([N+](=O)[O-])c3)CCCC2)cc1OC (stereo not given) | 891 |
| O=C(NC1CCC(CN2CCC(c3c[nH]c4ccccc34)CC2)CC1)C1(O)c2ccccc2-c2ccccc21 (stereo not given) | 1190 |
| O=C(Nc1cc(Cl)ccc1O)c1cc(-c2ccccc2O)no1 | 1090 |
| CCc1cn2c3c(cc(C(=O)N[C@@H](Cc4ccccc4)[C@H](O)CN[C@@H](C)CC)cc13)N(C)S(=O)(=O)CC2 | 74.5 |
| CCn1nc(C(=O)NC2CCOc3ccccc32)c2ccccc2c1=O (stereo not given) | 1230 |
| NCCCNc1ccc(-c2ccc(NC(=O)Nc3cc(C(F)(F)F)ccc3F)cc2)cn1 | 837 |
| COc1ccc(C2CCC(NCCCCNC(=O)c3ccc(NC(=O)c4ccc(Cl)cc4)cc3)CC2)cc1 (stereo not given) | 627 |
| N#Cc1cc([N+](=O)[O-])ccc1-n1nc(-c2cccc(Cl)c2)n(CC2CCCO2)c1=S (stereo not given) | 914 |
| COc1cc(NC(=O)N2CCOC(CCN3CCC(c4ccccc4)CC3)(c3ccc(Cl)c(Cl)c3)C2)cc(OC)c1OC (stereo not given) | 65.1 |
| Cc1ccccc1C1CCN(C2CCC(NC(=O)/C=C/c3ccc(Cl)cc3)CC2)CC1 (stereo not given) | 805 |
| CN1CCC(C(=O)N(Cc2ccc(-c3ccc(CNCCc4ccc(S(C)(=O)=O)cc4)cn3)cc2)Cc2ccc3c(c2)OCO3)CC1 | 1000 |
| CN(C)CC(=O)Nc1ccc(-c2ccc3ccnc(N)c3c2)cc1 | 33.1 |
| COc1cc2ncnc(NCCc3ccccc3Cl)c2cc1OC | 1120 |
| COc1cc(OC)c2c(C)cc(NCCCn3ccnc3)nc2c1 | 804 |
| CN(C)CC1CCCN1Cc1ccccc1-c1cnn(C)c(=O)c1Oc1ccccc1F (stereo not given) | 1310 |
| Cc1nnsc1C(=O)Nc1cccc(-c2cccc(-c3nc4ccccc4[nH]3)c2)c1 | 437 |
| Cn1cccc1C(=O)NCC(CCNc1cc(=O)c2ccccc2[nH]1)NCc1cc(Br)cc(Br)c1 (stereo not given) | 911 |
| CCOc1ccccc1CON1C(N)=NC(N)=NC1(C)C | 3.71 |
| C=C(C)CSc1nc2c(c(=O)n1Cc1ccco1)C1(CCCCC1)Cc1ccccc1-2 | 997 |
| Cc1ccc(NC(=O)c2ccc(CN3CCCN(CCC(C)C)CC3)cc2)cc1C | 913 |
| CCCNCc1ccc(-c2ccc(CN(CCOC)C(=O)c3ccc([N+](=O)[O-])c(C)c3)cc2)nc1 | 868 |
| N#Cc1ccc(NC(=O)Nc2ccc3c(c2)CCN(C2CCC2)CC3)cc1 | 628 |

| SMILES | XC50 [nM] |
| --- | --- |
| COc1cc(F)c2ncc(Cl)c([C@@H](O)CN3CCC(NCc4ccc5c(n4)NC(=O)CO5)CC3)c2c1 | 124 |
| C[C@H](Cc1ccc(Oc2ccc(C[C@@H](C)NC[C@H](O)c3cccc(Cl)c3)cc2)cc1)NC[C@H](O)c1cccc(Cl)c1 | 560 |
| CC(C)c1ccc2c(c1)C(=O)c1ccc(C(=O)O)cc1S2(=O)=O | 472 |
| O=C(/C=C/c1ccc(Cl)c(Cl)c1)N1CCC(CN2CCC(c3c[nH]c4ccc(O)cc34)CC2)CC1 | 776 |
| Clc1cc2c(Nc3ccc(Oc4ccccc4)cc3)ccnc2cc1-c1ccc(CNCCN2CCOCC2)o1 | 707 |
| Cc1ccc(Nc2nc(C)cc(N3CCN(c4ccccc4)CC3)n2)cc1 | 1530 |
| CC(C)C[C@H](NC(=O)c1ccc(OCCN2CCOCC2)cc1)C(=O)N[C@H](/C=N/N(C)C(=O)c1ccccc1)CCc1ccccc1 | 269 |
| CC(C)(CNC(=O)[C@@H]1CCCCN1)c1nc(-c2ccc(Cl)c(O)c2)c(-c2ccncc2)[nH]1 | 841 |
| COCCNc1nc(N2CCC(CNC(=O)c3ccc(-c4ccc(C(=O)N(C)C)cc4C)cc3)CC2)nc2cc(OC)c(OC)cc12 | 1020 |
| CC(C)(CNC(=O)[C@@H]1CCCN(Cc2ccc(Cl)cc2)C1)c1nc(-c2ccc(Cl)c(O)c2)c(-c2ccncc2)[nH]1 | 941 |
| O=C(Nc1ccc(Cl)cc1)Nc1cccc(-c2cc(CNCCc3ccccc3)oc2-c2ccncc2)c1 | 279 |
| Cc1ccc(Cc2cnc(CN3CCCCC3)c(O)c2)cc1 | 890 |
| Cc1ccc(C(=O)N2CCc3cc4nccc(N5CCN6CCC[C@H]6C5)c4cc32)cc1 | 1100 |
| Cn1nc(-c2ccc(CNC3CCc4ccccc43)cc2)c2cnc(NCCN3CCCC3)nc21 (stereo not given) | 1350 |
| CC(CN1CCN(C)CC1)C(=O)Nc1cccc(-c2ccc(-c3nc4ccccc4[nH]3)cc2)c1 (stereo not given) | 943 |
| O=C(Nc1ccc(C(F)(F)F)cc1)NC1CCN(c2ccnc3ccccc23)C1 (stereo not given) | 87.5 |
| COc1ccc(F)cc1-c1csc(N(c2ccc(F)cc2)C2CCNCC2)n1 | 1210 |
| COc1cc2c(cc1S(=O)(=O)c1ccc(NC(=O)c3ccc4ccccc4c3)cc1)CCN(C)CC2 | 797 |
| CCc1nc2c(N)nc(N)nc2nc1-c1ccc(OC)cc1 | 1200 |
| O=C(CCc1c[nH]cn1)Nc1cccc(-c2ccc(-c3nc4ccccc4[nH]3)cc2)c1 | 651 |
| NC(=O)c1cccc(Nc2nccc(Nc3ccc(Oc4ccc5ccccc5c4)cc3)n2)c1 | 810 |
| O=C(c1cc(-c2ccccc2)n[nH]1)N1CCN(S(=O)(=O)c2ccc(Cl)s2)CC1 | 925 |
| CCOc1cc(CC)ccc1C1CCN(CCCCNC(=O)c2ccc(NC(=O)c3ccc(C#N)cc3)cc2)CC1 | 504 |
